Reference: ChEMBL document CHEMBL1134067, “Modeling of the binding mode of a non-covalent inhibitor of the 20S proteasome. Application to structure-based analogue design” (Bioorg Med Chem Lett, 2001)
pIC50: −log10 of the molar value.

Organism: Homo sapiens
Assay: In vitro inhibitory concentration against Chymotrypsin-like catalytic activity of the human 20S Proteasome
Type: functional

- pIC50: < 4.70
SMILES: COc1ccc(CN[C@@H](C(=O)N[C@H](C(=O)NCc2ccc(OC)cc2OC)C(C)C)[C@H](O)[C@H](Cc2ccccc2)NC(=O)[C@@H](NC(=O)OCc2ccccc2)C(C)C)cc1
